Experimental data taken from ChEMBL document CHEMBL1126028, “Antiandrogenic steroidal sulfonyl heterocycles. Utility of electrostatic complementarity in defining bioisosteric sulfonyl heterocycles” (J Med Chem, 1992).

How the values were obtained:
[1] = biological target: T1, Androgen receptor (Rattus norvegicus, UniProt P15207)
T1 sequence (P15207 whole entry): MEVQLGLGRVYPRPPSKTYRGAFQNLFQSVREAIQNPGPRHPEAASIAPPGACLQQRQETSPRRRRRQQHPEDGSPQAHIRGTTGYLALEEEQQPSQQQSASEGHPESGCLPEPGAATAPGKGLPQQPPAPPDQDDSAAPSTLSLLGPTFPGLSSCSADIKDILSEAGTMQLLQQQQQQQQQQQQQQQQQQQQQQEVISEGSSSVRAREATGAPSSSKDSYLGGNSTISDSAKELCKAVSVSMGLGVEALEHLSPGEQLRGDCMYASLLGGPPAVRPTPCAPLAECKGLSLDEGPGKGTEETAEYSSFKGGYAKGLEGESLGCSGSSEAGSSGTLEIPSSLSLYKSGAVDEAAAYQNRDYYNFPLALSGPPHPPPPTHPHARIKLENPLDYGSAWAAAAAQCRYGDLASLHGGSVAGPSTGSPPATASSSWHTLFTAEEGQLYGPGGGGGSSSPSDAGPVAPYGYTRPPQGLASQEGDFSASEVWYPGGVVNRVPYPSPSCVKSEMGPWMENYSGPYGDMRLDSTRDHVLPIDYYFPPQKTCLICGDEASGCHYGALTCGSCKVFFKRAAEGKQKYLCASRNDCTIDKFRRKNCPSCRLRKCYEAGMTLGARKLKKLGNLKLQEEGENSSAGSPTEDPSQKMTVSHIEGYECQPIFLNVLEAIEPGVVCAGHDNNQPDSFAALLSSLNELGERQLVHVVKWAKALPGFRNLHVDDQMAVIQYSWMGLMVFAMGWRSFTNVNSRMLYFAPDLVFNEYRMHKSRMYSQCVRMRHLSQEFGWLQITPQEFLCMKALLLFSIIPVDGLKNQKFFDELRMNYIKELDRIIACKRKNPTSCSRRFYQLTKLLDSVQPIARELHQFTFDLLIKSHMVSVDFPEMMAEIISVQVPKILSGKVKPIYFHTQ
Description: In vivo binding affinity for rat ventral prostate androgen receptor by displacement of [3H]R-1881

[2] = biological target: T1, Androgen receptor; assay: […] binding affinity for rat ventral prostate androgen receptor by displacement of [3H]R-1881; parameters: species or system Prostate gland
[3] = biological target: T2, Androgen receptor (Rattus norvegicus) (UniProt P15207); assay: […] relative binding affinity (1h/18h) as ratio of binding affinities for R1881 and compound against rat ventral prostate androgen receptor using [3H]- R1881 as radioligand; 0.26/0.04
T2 sequence (whole entry): T1 sequence (P15207 whole entry)

[4] = biological target: T2, Androgen receptor (Rattus norvegicus); assay: […] relative binding affinity (1h/18h) as ratio of binding affinities for R1881 and compound against rat ventral prostate androgen receptor using [3H]- R1881 as radioligand; <.01/<.01
[5] = biological target: T2, Androgen receptor (Rattus norvegicus); assay: […] relative binding affinity (1h/18h) as ratio of binding affinities for R1881 and compound against rat ventral prostate androgen receptor using [3H]- R1881 as radioligand; <0.01/<0.01
[6] = biological target: T2, Androgen receptor (Rattus norvegicus); assay: […] relative binding affinity (1h/18h) as ratio of binding affinities for R1881 and compound against rat ventral prostate androgen receptor using [3H]- R1881 as radioligand; 1.2/0.05

`C#C[C@]1(O)CCC2C3CC[C@H]4Cc5nc(S(C)(=O)=O)sc5C[C@]4(C)C3CC[C@@]21C` (some centres undefined) was tested. Which Ki [1] did it give?
The Ki was 860 nM.

How did the Ki [2] turn out when `C#C[C@]1(O)CCC2C3CC[C@H]4Cc5nc(S(C)(=O)=O)ncc5C[C@]4(C)C3CC[C@@]21C` (some centres undefined) was run?
Its Ki is 3000 nM.

And the relative binding affinity (RBA) [3]?
Its relative binding affinity (RBA) is 0.26.

Which relative binding affinity (RBA) [4] does the source give for `C#C[C@]1(O)CCC2C3CC[C@H]4Cc5sc(S(C)(=O)=O)cc5C[C@]4(C)C3CC[C@@]21C` (some centres undefined) here?
Its relative binding affinity (RBA) is under 0.01.

And the Ki [1]?
The Ki was over 29000 nM.

`C#C[C@]1(O)CCC2C3CC[C@H]4Cc5cc(S(C)(=O)=O)oc5C[C@]4(C)C3CC[C@@]21C` (some centres undefined) was tested. Which relative binding affinity (RBA) [5] did it give?
Its relative binding affinity (RBA) is under 0.01.

What about the Ki [1] of the same compound?
The Ki was over 29000 nM.

With `C#C[C@]1(O)CCC2C3CC[C@H]4Cc5oc(S(C)(=O)=O)nc5C[C@]4(C)C3CC[C@@]21C` (some centres undefined) as the compound, how does the relative binding affinity (RBA) [6] read?
Its relative binding affinity (RBA) is 1.2.

With `C#C[C@]1(O)CCC2C3CC[C@H]4Cc5oc(S(C)(=O)=O)cc5C[C@]4(C)C3CC[C@@]21C` (some centres undefined) as the compound, how does the Ki [1] read?
Its Ki is 520 nM.
